Results from PMC4053474 (Bioconjugate chemistry, 2008).
Blank lines part the entries; values can stand above or below the molecule they belong to.

Columns and labels:
[1] = test system: Integrin αVβ6-positive H2009 cells; experiment: flow cytometric analysis of doxorubicin uptake; assay type: cell-based, human; conditions: 30 µM, 2 h, flow cytometry
[2] = test system: Integrin αVβ6-positive H2009 cells; experiment: cell viability assay; assay type: cell-based, human; conditions: 200 nM to 5 µM, 24 h exposure, 72 h post-incubation, CellTiter Glo
[3] = target: αvβ6 (Homo sapiens, UniProt P06756+P18564); experiment: binding affinity for integrin αvβ6; conditions: data not shown
Sequence of αvβ6 (P06756 31-889 limits assumed): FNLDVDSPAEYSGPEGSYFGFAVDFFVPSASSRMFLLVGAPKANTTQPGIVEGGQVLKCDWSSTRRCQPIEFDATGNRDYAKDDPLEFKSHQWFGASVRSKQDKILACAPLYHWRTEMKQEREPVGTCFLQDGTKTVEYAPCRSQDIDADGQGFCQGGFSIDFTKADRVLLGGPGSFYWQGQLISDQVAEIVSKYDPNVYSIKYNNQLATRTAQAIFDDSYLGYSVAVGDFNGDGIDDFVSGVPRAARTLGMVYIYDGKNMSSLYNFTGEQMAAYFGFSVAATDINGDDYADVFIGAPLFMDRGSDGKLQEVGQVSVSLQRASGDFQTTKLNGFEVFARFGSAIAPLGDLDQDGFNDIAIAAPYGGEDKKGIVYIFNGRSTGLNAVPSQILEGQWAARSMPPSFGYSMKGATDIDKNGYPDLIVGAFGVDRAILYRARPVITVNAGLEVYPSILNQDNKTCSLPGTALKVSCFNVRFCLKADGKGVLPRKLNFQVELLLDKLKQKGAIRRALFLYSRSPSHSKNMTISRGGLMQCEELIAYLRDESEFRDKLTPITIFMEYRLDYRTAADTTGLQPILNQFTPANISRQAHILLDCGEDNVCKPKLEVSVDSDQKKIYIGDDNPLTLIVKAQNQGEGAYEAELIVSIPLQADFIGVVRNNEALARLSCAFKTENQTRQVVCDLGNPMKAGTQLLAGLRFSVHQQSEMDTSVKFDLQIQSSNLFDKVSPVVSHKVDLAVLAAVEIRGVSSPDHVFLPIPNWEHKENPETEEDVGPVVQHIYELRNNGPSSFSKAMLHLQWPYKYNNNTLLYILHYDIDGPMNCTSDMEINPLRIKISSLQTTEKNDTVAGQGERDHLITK
Sequence of αvβ6 (P06756 891-1048 partner limits assumed): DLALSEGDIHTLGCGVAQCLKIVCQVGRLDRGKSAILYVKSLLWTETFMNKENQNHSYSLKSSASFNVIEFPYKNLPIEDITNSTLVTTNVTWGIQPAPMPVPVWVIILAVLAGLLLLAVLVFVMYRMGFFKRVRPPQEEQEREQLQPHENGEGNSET
Sequence of αvβ6 (P18564 22-788): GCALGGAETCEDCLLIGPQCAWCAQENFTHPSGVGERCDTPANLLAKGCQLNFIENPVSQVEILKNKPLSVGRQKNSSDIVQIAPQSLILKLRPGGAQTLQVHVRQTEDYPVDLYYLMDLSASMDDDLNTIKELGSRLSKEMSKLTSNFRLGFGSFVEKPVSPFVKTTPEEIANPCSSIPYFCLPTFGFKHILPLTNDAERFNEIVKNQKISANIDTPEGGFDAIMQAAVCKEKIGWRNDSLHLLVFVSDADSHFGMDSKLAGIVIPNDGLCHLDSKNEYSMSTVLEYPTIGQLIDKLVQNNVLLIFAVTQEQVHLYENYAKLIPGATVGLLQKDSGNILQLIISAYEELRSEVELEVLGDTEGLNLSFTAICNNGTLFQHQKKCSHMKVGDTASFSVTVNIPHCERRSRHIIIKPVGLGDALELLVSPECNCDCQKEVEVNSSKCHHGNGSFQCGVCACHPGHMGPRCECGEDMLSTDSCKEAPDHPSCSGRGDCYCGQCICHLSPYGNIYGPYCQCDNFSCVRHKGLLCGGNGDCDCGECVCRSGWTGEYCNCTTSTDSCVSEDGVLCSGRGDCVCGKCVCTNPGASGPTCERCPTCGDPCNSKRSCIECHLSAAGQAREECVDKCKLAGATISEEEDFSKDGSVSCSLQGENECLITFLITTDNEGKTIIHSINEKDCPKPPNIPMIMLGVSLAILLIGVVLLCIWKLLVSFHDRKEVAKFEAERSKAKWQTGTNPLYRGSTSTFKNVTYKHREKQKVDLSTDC

[4] = test system: H2009 cells; conditions: ref personal communication, Drs. John D. Minna and Michael Peyton; cited from earlier work

Molecule: COc1cccc2c1C(=O)c1c(O)c3c(c(O)c1C2=O)C[C@@](O)(C(=O)CO)C[C@@H]3O[C@H]1C[C@H](N)[C@H](O)[C@H](C)O1 [doxorubicin, reference compound]
internalization into H2009 compared with H1299 cells [1]: internalizes into both cell lines equally
pairwise comparison of viability of H2009 and H1299 cells [2]: did not demonstrate any statistical difference

binding affinity for αvβ6 [3]: no binding affinity
Molecule: DALRLQGTLR [scrambled sequence peptide]

Molecule: CC(=O)O[C@H]1C(=O)[C@@]2(C)[C@H]([C@H](OC(=O)c3ccccc3)[C@]3(O)C[C@H](OC(=O)[C@H](O)[C@@H](NC(=O)c4ccccc4)c4ccccc4)C(C)=C1C3(C)C)[C@]1(OC(C)=O)CO[C@@H]1C[C@@H]2O [paclitaxel]
IC50 relative to that of doxorubicin (fold lower) [4]: 40 fold
